For assay [1], the target named is F730Y Tma30 DNA polymerase (nucleotides 1-570 of Taq DNA polymerase with G46D fused to nucleotides 571-2679 of Tma DNA polymerase with D323A, E325A, F730Y). In words: Limiting template primer extension competition assay (ddNTP incorporation), F730Y Tma30. Format: biochemical, Thermus aquaticus / Thermotoga maritima. The settings on record: inhibition of DNA synthesis ([α-33P]dCMP incorporation); 20 μM each dNTP, M13 mp18/DG48, pH 8.3, 10 min; 2 units enzyme; read-out: Concentration of Zowie-ddCTP or ddCTP needed for 50% inhibition. As for the experimental part: (§1) The ability of the enzymes of this invention to efficiently incorporate nucleotides labeled with fluorescein family dyes is measured by ddNTP incorporation assays. One such assay is a primer extension competition assay conducted under conditions of limiting template. In this assay, a primer DG48 (5′-[…]), (SEQ ID NO: 11), bound to M13 mp18 template (Innis et al., 1988, Proc. Natl. Acad. Sci. USA 85:9436) is extended in the presence of [α-^33P]dCTP and excess enzyme with various levels of a fluorescently labeled ddNTP, Zowie-ddCTP. Because the incorporation of a ddCTP residue terminates the extension reaction, the more readily a DNA polymerase incorporates a ddCTP into an extended primer, the less [α-^33P]dCTP can be incorporated. Thus, as the efficiency of fluorescently labeled ddCTP incorporation increases, the extent of inhibition of DNA synthesis is increased. The reactions were also performed with various levels of an unlabeled ddCTP. […]
(§2) The relative abilities of G46D F667Y Taq, G46D F667Y E681K Taq and F730Y Tma30 DNA polymerases to incorporate a fluorescein dye family-labeled ddCTP were compared by use of a limiting template, primer extension competition assay. […] In this competition assay, because the incorporation of a ddCTP terminates the extension reaction, the more readily the polymerase incorporates a ddCTP into an extended primer, the less [α-^33P]dCTP can be incorporated. […]

Assay [2] concerns the target T1, Thermus aquaticus (Taq) DNA polymerase variant G46D F667Y (Thermus aquaticus, UniProt P19821, F667Y/G46D).
T1 construct: Expression vector pRDA3-2 contains the full-length Taq DNA polymerase gene; made in house; host or cells: E. coli DG116 (stated generally for the polymerases of the invention)
In words: Limiting template primer extension competition assay (ddNTP incorporation), G46D F667Y Taq. Format: biochemical. Here is the method:
as §1, §2

Assay [3] concerns primer DG48 annealed to M13 mp18 template. In words: limiting template, primer extension competition assay (ddNTP incorporation assay). The class given is biochemical. The settings on record: ratio of concentrations for 50% inhibition by Zowie-ddCTP vs. ddCTP. As for the experimental part:
as §1, §2

Assay [4] can be described thus: dye-terminator dideoxy-sequencing using rhodamine-labeled terminators. The class given is biochemical.

T1 sequence (P19821 whole entry G46D/F667Y): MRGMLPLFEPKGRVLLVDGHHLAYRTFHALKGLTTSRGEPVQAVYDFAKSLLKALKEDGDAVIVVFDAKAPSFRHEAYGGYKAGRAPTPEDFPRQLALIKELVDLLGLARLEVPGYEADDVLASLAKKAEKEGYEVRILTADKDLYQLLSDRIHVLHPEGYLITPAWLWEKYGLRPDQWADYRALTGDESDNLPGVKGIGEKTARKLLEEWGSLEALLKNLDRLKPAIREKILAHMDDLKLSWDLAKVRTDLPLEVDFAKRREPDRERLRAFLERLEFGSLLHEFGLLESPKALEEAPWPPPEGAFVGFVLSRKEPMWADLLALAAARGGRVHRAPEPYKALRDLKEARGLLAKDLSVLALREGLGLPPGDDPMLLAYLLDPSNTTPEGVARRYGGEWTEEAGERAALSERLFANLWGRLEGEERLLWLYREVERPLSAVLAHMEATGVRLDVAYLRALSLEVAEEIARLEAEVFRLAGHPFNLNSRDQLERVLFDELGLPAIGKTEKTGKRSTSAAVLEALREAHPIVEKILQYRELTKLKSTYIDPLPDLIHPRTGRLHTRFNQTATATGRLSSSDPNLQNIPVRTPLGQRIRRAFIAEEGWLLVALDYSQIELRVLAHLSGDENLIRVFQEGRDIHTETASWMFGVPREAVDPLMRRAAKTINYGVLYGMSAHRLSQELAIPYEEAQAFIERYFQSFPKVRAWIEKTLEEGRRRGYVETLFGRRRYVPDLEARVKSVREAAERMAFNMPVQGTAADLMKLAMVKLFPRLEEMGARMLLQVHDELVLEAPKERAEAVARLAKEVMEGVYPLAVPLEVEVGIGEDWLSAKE

For the molecule `Nc1ccn([C@H]2CC[C@@H](COP(=O)(O)OP(=O)(O)OP(=O)(O)O)O2)c(=O)n1` [ddCTP], the IC50 in assay [1] came to 57 nM; in assay [2], 56 nM.

B1: G46D F667Y E681K Taq: thermostable Taq DNA polymerase with G46D, F667Y and E681K mutations, encoded by plasmid pLK113 (protein, UniProt P19821 1-832, looked up, variant G46D F667Y E681K)
DNA polymerase I, thermostable: MRGMLPLFEPKGRVLLVDGHHLAYRTFHALKGLTTSRGEPVQAVYDFAKSLLKALKEDGDAVIVVFDAKAPSFRHEAYGGYKAGRAPTPEDFPRQLALIKELVDLLGLARLEVPGYEADDVLASLAKKAEKEGYEVRILTADKDLYQLLSDRIHVLHPEGYLITPAWLWEKYGLRPDQWADYRALTGDESDNLPGVKGIGEKTARKLLEEWGSLEALLKNLDRLKPAIREKILAHMDDLKLSWDLAKVRTDLPLEVDFAKRREPDRERLRAFLERLEFGSLLHEFGLLESPKALEEAPWPPPEGAFVGFVLSRKEPMWADLLALAAARGGRVHRAPEPYKALRDLKEARGLLAKDLSVLALREGLGLPPGDDPMLLAYLLDPSNTTPEGVARRYGGEWTEEAGERAALSERLFANLWGRLEGEERLLWLYREVERPLSAVLAHMEATGVRLDVAYLRALSLEVAEEIARLEAEVFRLAGHPFNLNSRDQLERVLFDELGLPAIGKTEKTGKRSTSAAVLEALREAHPIVEKILQYRELTKLKSTYIDPLPDLIHPRTGRLHTRFNQTATATGRLSSSDPNLQNIPVRTPLGQRIRRAFIAEEGWLLVALDYSQIELRVLAHLSGDENLIRVFQEGRDIHTETASWMFGVPREAVDPLMRRAAKTINYGVLYGMSAHRLSQKLAIPYEEAQAFIERYFQSFPKVRAWIEKTLEEGRRRGYVETLFGRRRYVPDLEARVKSVREAAERMAFNMPVQGTAADLMKLAMVKLFPRLEEMGARMLLQVHDELVLEAPKERAEAVARLAKEVMEGVYPLAVPLEVEVGIGEDWLSAKE
Turning to B1, the “Zowie-ddCTP/ddCTP (ratio of concentrations for 50% inhibition)” value in assay [3] amounted to 1.2. Further, the “peak heights in dye-terminator dideoxy-sequencing” value in assay [4] was “more uniform peak heights”.
